US20250206745A1, “PYRROLOPYRIDAZINE DERIVATIVES AND RELATED USES” (NodThera Limited, priority 2023, published 2025)
pIC50: −log10 of the molar value. Counter-ions that a name gives are not always drawn.

Experiments:
[1] = system: IL-1β release upon NLRP3 activation in peripheral blood mononuclear cells (PBMC); test: PBMC IC50 Determination Assay; assay type: cell-based; details: Homo sapiens; inhibition of IL-1β release; PBMC primed with LPS, stimulated with ATP or nigericin; ELISA or HTRF
Method: The compounds of the present disclosure were tested for their inhibitory activity against IL-1β release upon NLRP3 activation in peripheral blood mononuclear cells (PBMC).
Protocol A. PBMC were isolated from buffy coats by density gradient centrifugation on Histopaque-1077 (Sigma, cat no. 10771). Isolated cells were seeded into the wells of a 96-well plate and incubated for 3 h with lipopolysaccharide (LPS). Following medium exchange, the compounds of the present disclosure were added (a single compound per well) and the cells were incubated for 30 min. Next, the cells were stimulated either with ATP (5 mM) or nigericin (10 μM) for 1 h and the cell culture media from the wells were collected for further analysis.
The release of IL-1β into the media was determined by a quantitative detection of IL-1β in the media using an IL-1β enzyme-linked immunosorbent assay (ELISA) Ready-SET-Go!, eBioscience cat. No. 88-7261-88. Briefly, in a first step, high affinity binding plates (Corning, Costar 9018 or NUNC Maxisorp Cat No. 44-2404) were coated overnight at 4° C. with specific capture antibody included in the kit (anti-human IL-1β ref. 14-7018-68). Subsequently, plates were blocked with blocking buffer for 1 h at room temperature (rt) and after washing with a buffer (PBS with 0.05% Tween-20) incubated with protein standard and culture media. After 2 h of incubation at rt, plates were washed and incubated with biotinylated detection antibody included in the kit (anti-human IL-1β Biotin ref. 33-7110-68) for 1 h at rt. Plates were washed and incubated with HRP-streptavidin for 30 min at rt and washed again. The signal was developed after addition of 3,3′,5,5′-tetramethylbenzidine-peroxidase (TMB) until colour appeared and the reaction was stopped by 2 M H2SO4. A microplate spectrophotometer (BioTek) was used to detect signals with 450 nm. The detection range of IL-1β ELISA was […].
Protocol B. PBMC were isolated from buffy coats by density gradient centrifugation on Histopaque-1077 (Sigma, cat no. 10771). Isolated cells were seeded into the wells (280,000 cells/well) of a 96-well plate and incubated for 3 h with lipopolysaccharide (LPS, 1 μg/mL diluted 1000× from a 1 mg/mL stock solution). The compounds of the present disclosure were added (a single compound per well) and the cells were incubated for 30 min. Next, the cells were stimulated with ATP (5 mM final concentration diluted 20× from a 100 mM stock solution) for 1 h and the cell culture media from the wells were collected for further analysis.
The release of IL-1β into the media was determined by quantitative detection of IL-1β in the media using HTRF®, CisBio cat. No. 62HIL1BPEH. Briefly, cell culture supernatant were dispensed directly into the assay plate containing antibodies labelled with the HTRF® donor and acceptor. A microplate spectrophotometer (BMG) was used to detect signals at 655 nm and 620 nm. The detection range of IL-1β HTRF® was 39-6500 pg/mL.

[2] = system: IL-1β release upon NLRP3 activation in phorbol 12-myristate 13-acetate (PMA)-differentiated THP-1 cells; test: THP-1 IC50 Determination Assay; assay type: cell-based; details: Homo sapiens, inhibition of IL-1β release, LPS, nigericin, ELISA
Method: The compounds of the present disclosure were tested for their inhibitory activity against IL-1β release upon NLRP3 activation in phorbol 12-myristate 13-acetate (PMA)-differentiated THP-1 cells.
THP-1 cells stored in liquid nitrogen were thawed in a 37° C. water bath. The cells were added into complete RPMI 1640 medium (FBS (56 mL), 100× Penicillin-Streptomycin (5.6 mL) and 0.05 mM 2-Mercaptoethanol in RPMI 1640 Medium (500 mL)) and centrifuged for 5 min at 1000 rpm. The supernatant was discarded and the cells resuspended into new cell culture medium for culturing. Cells were cultured in cell culture medium and passaged every 3-4 days to maintain cell density between 4×10^5 and 1.5×10^6 cells/mL. The cells were diluted to 0.8×10^6 cells/mL and grown in a T150 flask with PMA (final concentration 5 ng/mL). The flask was incubated in a 37° C. incubator with a humidified atmosphere of 5% CO2 for −40 hours. After −40 hours of PMA differentiation, the flask was washed with DPBS. Cells were digested with Trypsin LE for about 5 min at room temperature, and digestion was terminated using complete RPMI 1640 medium. Cells were centrifuged and resuspended (1000 rpm, 3 min). The supernatant was discarded and cells washed with DPBS, centrifuged and resuspended cells (1000 rpm, 5 min). Cells were plated at 30,000 cells/well in a 384-well PP plate and treated with 25 ng/mL LPS solution diluted in serum-free medium (45 μL). The plate was incubated in a 37° C. incubator with a humidified atmosphere of 5% CO2 for 2 hours. Compounds (from 10 mM DMSO solution) were dispensed and serially diluted by 1:3 eight times, with final 0.5% DMSO concentration. NLRP3 inflammasome was activated with nigericin (5 μL), the plate was centrifuged (1000 rpm, 30 s) and incubated in a 37° C. incubator with a humidified atmosphere of […] for 2 hours. 35 μL/well of supernatant was removed and IL-1β levels determined by ELISA assay (Mabtech 3416-1H-20) according to the manufacturer's instructions.

## Cc1cc(Cl)cc(O)c1-c1cc2ccn(CC3CN(C)CCO3)c2nn1 (centres unmarked) [Compound 34, 5-Chloro-3-methyl-2-{7-[(4-methylmorpholin-2-yl)methyl]-7H-pyrrolo[2,3-c]pyridazin-3-yl}phenol hydrochloride]
[1]
  pIC50: 6.00 to 6.52
[2]
  pIC50: 6.00 to 6.52

## Cc1cc(Cl)cc(O)c1-c1cc2ccn(CC3CCN(C)CC3(F)F)c2nn1 (centres unmarked) [Compound 35, 5-Chloro-2-{7-[(3,3-difluoro-1-methylpiperidin-4-yl)methyl]-7H-pyrrolo[2,3-c]pyridazin-3-yl}-3-methylphenol hydrochloride]
[1]
  pIC50: 6.52 to 7.00
[2]
  pIC50: 6.00 to 6.52

## Cc1cc(Cl)cc(O)c1-c1cc2ccn(CC(=O)N3CCCCC3)c2nn1 [Compound 36, 2-[3-(4-Chloro-2-hydroxy-6-methylphenyl)-7H-pyrrolo[2,3-c]pyridazin-7-yl]-1-(piperidin-1-yl)ethan-1-one]
[1]
  pIC50: 6.00 to 6.52
[2]
  pIC50: 6.00 to 6.52

## Cc1cc(Cl)cc(O)c1-c1cc2ccn(CC3CCOCC3)c2nn1 [Compound 37, 5-Chloro-3-methyl-2-{7-[(oxan-4-yl)methyl]-7H-pyrrolo[2,3-c]pyridazin-3-yl}phenol]
[1]
  pIC50: 6.52 to 7.00
[2]
  pIC50: 6.00 to 6.52

## Cc1cc(Cl)cc(O)c1-c1cc2ccn(CCN3CCCCC3)c2nn1 [Compound 38, 5-Chloro-3-methyl-2-{7-[2-(piperidin-1-yl)ethyl]-7H-pyrrolo[2,3-c]pyridazin-3-yl}phenol hydrochloride]
[1]
  pIC50: 6.00 to 6.52
[2]
  pIC50: 6.00 to 6.52

## Cc1cc(Cl)cc(O)c1-c1cc2ccn(CC3CCCN3C)c2nn1 (centres unmarked) [Compound 39, 5-Chloro-3-methyl-2-{7-[(1-methylpyrrolidin-2-yl)methyl]-7H-pyrrolo[2,3-c]pyridazin-3-yl}phenol hydrochloride]
[1]
  pIC50: 6.52 to 7.00
[2]
  pIC50: 6.00 to 6.52

## Cc1cc(Cl)cc(O)c1-c1cc2ccn(CCN3CCCC3=O)c2nn1 [Compound 40, 1-{2-[3-(4-Chloro-2-hydroxy-6-methylphenyl)-7H-pyrrolo[2,3-c]pyridazin-7-yl]ethyl}pyrrolidin-2-one]
[1]
  pIC50: 5.52 to 6.00
[2]
  pIC50: 5.52 to 6.00

## Cc1cc(Cl)cc(O)c1-c1cc2ccn(CC3COCCN3C)c2nn1 (centres unmarked) [Compound 41, 5-Chloro-3-methyl-2-{7-[(4-methylmorpholin-3-yl)methyl]-7H-pyrrolo[2,3-c]pyridazin-3-yl}phenol hydrochloride]
[1]
  pIC50: 6.52 to 7.00
[2]
  pIC50: 6.00 to 6.52

## Cc1cc(Cl)cc(O)c1-c1cc2ccn(CC3CCCOC3)c2nn1 (centres unmarked) [Compound 42, 5-Chloro-3-methyl-2-{7-[(oxan-3-yl)methyl]-7H-pyrrolo[2,3-c]pyridazin-3-yl}phenol]
[1]
  pIC50: 6.52 to 7.00
[2]
  pIC50: 6.00 to 6.52

## Cc1cc(Cl)cc(O)c1-c1cc2ccn(CC3CCCO3)c2nn1 (centres unmarked) [Compound 43, 5-Chloro-3-methyl-2-{7-[(oxolan-2-yl)methyl]-7H-pyrrolo[2,3-c]pyridazin-3-yl}phenol]
[1]
  pIC50: 6.52 to 7.00
[2]
  pIC50: 6.52 to 7.00

## CC(=O)NCCn1ccc2cc(-c3c(C)cc(Cl)cc3O)nnc21 [Compound 44, N-{2-[3-(4-Chloro-2-hydroxy-6-methylphenyl)-7H-pyrrolo[2,3-c]pyridazin-7-yl]ethyl}acetamide]
[1]
  pIC50: 6.00 to 6.52
[2]
  pIC50: 6.00 to 6.52

## Cc1cc(Cl)cc(O)c1-c1cc2ccn(CCN3CCC(=O)C3)c2nn1 [Compound 45, 1-{2-[3-(4-Chloro-2-hydroxy-6-methylphenyl)-7H-pyrrolo[2,3-c]pyridazin-7-yl]ethyl}pyrrolidin-3-one]
[1]
  pIC50: 6.00 to 6.52
[2]
  pIC50: 6.00 to 6.52

## Cc1cc(Cl)cc(O)c1-c1cc2ccn(C[C@@H]3CCCCN3C)c2nn1 [Compound 46, 5-Chloro-3-methyl-2-(7-{[(2S)-1-methylpiperidin-2-yl]methyl}-7H-pyrrolo[2,3-c]pyridazin-3-yl)phenol hydrochloride]
[1]
  pIC50: 7.00 to 7.52
[2]
  pIC50: 6.52 to 7.00

## Cc1cc(Cl)cc(O)c1-c1cc2ccn(C[C@H]3CCCCN3C)c2nn1 [Compound 47, 5-Chloro-3-methyl-2-(7-{[(2R)-1-methylpiperidin-2-yl]methyl}-7H-pyrrolo[2,3-c]pyridazin-3-yl)phenol hydrochloride]
[1]
  pIC50: 6.52 to 7.00
[2]
  pIC50: 6.00 to 6.52

## Cc1cc(Cl)cc(O)c1-c1cc2ccn(CC3COC3)c2nn1 [Compound 48, 5-Chloro-3-methyl-2-{7-[(oxetan-3-yl)methyl]-7H-pyrrolo[2,3-c]pyridazin-3-yl}phenol]
[1]
  pIC50: 6.52 to 7.00
[2]
  pIC50: 6.52 to 7.00

## Cc1cc(Cl)cc(O)c1-c1cc2ccn(CC3CCN(C)C4(CC4)C3)c2nn1 (centres unmarked) [Compound 49, 5-Chloro-3-methyl-2-[7-({4-methyl-4-azaspiro[2.5]octan-7-yl}methyl)-7H-pyrrolo[2,3-c]pyridazin-3-yl]phenol hydrochloride]
[1]
  pIC50: 6.52 to 7.00
[2]
  pIC50: 6.00 to 6.52

## Cc1cc(Cl)cc(O)c1-c1cc2ccn(C(=O)N3CCN(C)CC3)c2nn1 [Compound 50, 5-Chloro-3-methyl-2-[7-(4-methylpiperazine-1-carbonyl)-7H-pyrrolo[2,3-c]pyridazin-3-yl]phenol hydrochloride]
[1]
  pIC50: 5.00 to 5.52
[2]
  pIC50: 6.00 to 6.52

## Cc1cc(Cl)cc(O)c1-c1cc2ccn(CC3CC4(C3)CN(C)C4)c2nn1 [Compound 52, 5-Chloro-3-methyl-2-[7-({2-methyl-2-azaspiro[3.3]heptan-6-yl}methyl)-7H-pyrrolo[2,3-c]pyridazin-3-yl]phenol hydrochloride]
[1]
  pIC50: 6.00 to 6.52
[2]
  pIC50: 6.52 to 7.00

## CC(=O)N1CCCC(Cn2ccc3cc(-c4c(C)cc(Cl)cc4O)nnc32)C1 (centres unmarked) [Compound 53, 1-(3-{[3-(4-Chloro-2-hydroxy-6-methylphenyl)-7H-pyrrolo[2,3-c]pyridazin-7-yl]methyl}piperidin-1-yl)ethan-1-one]
[1]
  pIC50: 6.52 to 7.00
[2]
  pIC50: 6.52 to 7.00

## Cc1cc(C#N)cc(O)c1-c1cc2ccn(CC3CCN(C)CC3)c2nn1 [Compound 54, 3-Hydroxy-5-methyl-4-{7-[(1-methylpiperidin-4-yl)methyl]-7H-pyrrolo[2,3-c]pyridazin-3-yl}benzonitrile]
[1]
  pIC50: 6.52 to 7.00
[2]
  pIC50: 6.00 to 6.52

## Cc1cc(Cl)cc(O)c1-c1cc2ccn(CC3(C#N)CCN(C)CC3)c2nn1 [Compound 55, 4-{[3-(4-Chloro-2-hydroxy-6-methylphenyl)-7H-pyrrolo[2,3-c]pyridazin-7-yl]methyl}-1-methylpiperidine-4-carbonitrile]
[1]
  pIC50: 7.00 to 7.52
[2]
  pIC50: 7.00 to 7.52

## Cc1cc(Cl)cc(O)c1-c1cc2ccn(CC3(O)CCN(C)CC3)c2nn1 [Compound 56, 4-{[3-(4-Chloro-2-hydroxy-6-methylphenyl)-7H-pyrrolo[2,3-c]pyridazin-7-yl]methyl}-1-methylpiperidin-4-ol hydrochloride]
[1]
  pIC50: > 7.52
[2]
  pIC50: > 7.52
